In patent publication US20250099557A1, “ANTIBIOTIC PHARMACEUTICAL COMPOSITION CAPABLE OF SUBCUTANEOUS ADMINISTRATION” (SHANGHAI BAO PHARMACEUTICALS CO., LTD., priority 2021, published 2025):
Where two headings read alike, the source gives them in different places.

Columns and labels:
intestinal flora = assay: Effects of administration routes on the diversity of intestinal flora in mice (16S rDNA sequencing, OTU); type: in vivo; conditions: C57BL/6 mice, feces
Text: 12 SPF grade C57BL/6 mice were used for each antibiotic mode, and divided into two groups, each having 6 mice. The two groups include an oral administration group, and a subcutaneous administration group combined with recombinant human HAase. A blank control group including 6 mice was also set. The mice in the oral administration group were given the model antibiotic solution by oral gavage for five consecutive days. The mice in the subcutaneous administration group combined with recombinant human HAase were given the same dose of model antibiotic as that in the oral administration group by subcutaneous administration for five consecutive days. The feces of mice in each group were collected on the 1 st, 2nd, 3rd, 4th, 5th, 6th, 8th, 10th and 14th days after five consecutive days of administration, and stored at −80° C., for detecting the microbial diversity later. The fecal samples of each group were amplified and sequenced by 16S rDNA sequencing. After DNA extraction, PCR amplification and gene sequencing, the changes of intestinal bacterial diversity in each group of mice were analyzed. The relative species diversity of the test group was calculated, with the OUT value of the blank control group in each day as a reference, as shown in Table 33.

in vivo = conditions: male, ICR, mouse
Text: (§1) The difference in pharmacokinetics between subcutaneous administration of antibiotics combined with recombinant human HAase and traditional intravenous administration of antibiotics in mice was studied. Ceftriaxone, Ceftazidime, Ertapenem, and Teicoplanin were used as model antibiotics. A total of 48 ICR male mice were used in each antibiotic model, and divided into two groups, each having 24 mice. The two groups include a tail vein injection group, and a subcutaneous administration group of antibiotics combined with recombinant human HAase. The single dose was 100-200 mg/kg, and the drugs was respectively formulated and administered according to the scheme for each group. Blood samples were taken 5 min, 15 min, 30 min, 45 min, 1 hr, 2 hrs, 4 hrs and 8 hrs after administration. The concentration of each model antibiotic in the sample was detected by LC-MS and the pharmacokinetic parameters were calculated.

[1] = male, ICR, mouse, in vivo, sc
Text: as §1

[2] = Pharmacokinetics of model antibiotics in mice: tail vein injection vs subcutaneous administration combined with recombinant human HAase; conditions: for AUC(0-t): AUClast
Text: as §1

HAase = target: T1, HAase (Homo sapiens, UniProt P38567); assay: Compatibility study of HAase and antibiotic in solution: HAase activity; type: biochemical; conditions: 15 min room temperature
T1 construct: made in house
T1 sequence (P38567 36-482): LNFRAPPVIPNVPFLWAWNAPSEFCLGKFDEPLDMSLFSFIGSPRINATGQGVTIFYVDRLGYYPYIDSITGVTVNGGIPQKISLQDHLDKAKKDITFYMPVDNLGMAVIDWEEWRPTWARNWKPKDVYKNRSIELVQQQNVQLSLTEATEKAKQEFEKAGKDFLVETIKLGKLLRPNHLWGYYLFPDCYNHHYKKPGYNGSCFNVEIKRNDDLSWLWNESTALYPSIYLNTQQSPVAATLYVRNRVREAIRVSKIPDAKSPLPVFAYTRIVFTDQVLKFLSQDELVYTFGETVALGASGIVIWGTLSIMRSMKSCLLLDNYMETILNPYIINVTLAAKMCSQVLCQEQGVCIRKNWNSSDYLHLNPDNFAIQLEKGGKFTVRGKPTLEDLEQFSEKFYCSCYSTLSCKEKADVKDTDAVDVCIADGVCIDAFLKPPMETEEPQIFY

[3] = in combination with recombinant human HAase for subcutaneous administration, five consecutive days, D1 after administration
[4] = in combination with recombinant human HAase for subcutaneous administration, five consecutive days, D2
[5] = in combination with recombinant human HAase for subcutaneous administration, five consecutive days, D3
[6] = in combination with recombinant human HAase for subcutaneous administration, five consecutive days, D4
[7] = in combination with recombinant human HAase for subcutaneous administration, five consecutive days, D5
[8] = in combination with recombinant human HAase for subcutaneous administration, five consecutive days, D6
[9] = in combination with recombinant human HAase for subcutaneous administration, five consecutive days, D8
[10] = in combination with recombinant human HAase for subcutaneous administration, five consecutive days, D10
[11] = in combination with recombinant human HAase for subcutaneous administration, five consecutive days, D14
[12] = oral administration for five consecutive days, D1 after administration
[13] = oral administration for five consecutive days, D2
[14] = oral administration for five consecutive days, D3
[15] = oral administration for five consecutive days, D4
[16] = oral administration for five consecutive days, D5
[17] = oral administration for five consecutive days, D6
[18] = oral administration for five consecutive days, D8
[19] = oral administration for five consecutive days, D10
[20] = oral administration for five consecutive days, D14
[21] = ICR male mice, in combination with recombinant human HAase for subcutaneous administration, single dose 100-200 mg/kg
[22] = ICR male mice, administration by injection via tail vein, single dose 100-200 mg/kg
[23] = ICR male mice, conventional subcutaneous administration, single dose 100-200 mg/kg

Row | Relative abundance of OUT (operational taxonomic units) (intestinal flora; [3]) | Relative abundance of OUT (operational taxonomic units) (intestinal flora; [4]) | Relative abundance of OUT (operational taxonomic units) (intestinal flora; [5]) | Relative abundance of OUT (operational taxonomic units) (intestinal flora; [6]) | Relative abundance of OUT (operational taxonomic units) (intestinal flora; [7]) | Relative abundance of OUT (operational taxonomic units) (intestinal flora; [8]) | Relative abundance of OUT (operational taxonomic units) (intestinal flora; [9]) | Relative abundance of OUT (operational taxonomic units) (intestinal flora; [10]) | Relative abundance of OUT (operational taxonomic units) (intestinal flora; [11]) | Relative abundance of OUT (operational taxonomic units) (intestinal flora; [12]) | Relative abundance of OUT (operational taxonomic units) (intestinal flora; [13]) | Relative abundance of OUT (operational taxonomic units) (intestinal flora; [14]) | Relative abundance of OUT (operational taxonomic units) (intestinal flora; [15]) | Relative abundance of OUT (operational taxonomic units) (intestinal flora; [16]) | Relative abundance of OUT (operational taxonomic units) (intestinal flora; [17]) | Relative abundance of OUT (operational taxonomic units) (intestinal flora; [18]) | Relative abundance of OUT (operational taxonomic units) (intestinal flora; [19]) | Relative abundance of OUT (operational taxonomic units) (intestinal flora; [20]) | Tmax (in vivo; iv) | Tmax [2, 21] | Compound | further results
1 | 35.5% | 37.2% | 36.3% | 36.2% | 36.2% | 37.1% | 42.1% | 42.9% | 48.7% | 24.4% | 23.6% | 20.4% | 22.6% | 20.7% | 24.3% | 25.8% | 28.6% | 31.9% | – | – | CC1=C(C(=O)O)N2C(=O)[C@@H](NC(=O)[C@H](N)C3=CCC=CC3)[C@H]2SC1 [Cefradine] | –
2 | 35.5% | 34.0% | 34.3% | 33.7% | 34.3% | 35.1% | 41.6% | 42.3% | 51.3% | 22.8% | 20.9% | 20.4% | 21.1% | 19.2% | 22.3% | 26.8% | 29.6% | 32.5% | 5 min | – | CC(C)(O/N=C(\C(=O)N[C@@H]1C(=O)N2C(C(=O)[O-])=C(C[n+]3ccccc3)CS[C@H]12)c1csc(N)n1)C(=O)O [Ceftazidime] | Tmax (in vivo; sc): 15 min
3 | 31.5% | 28.8% | 28.9% | 33.2% | 29.1% | 33.2% | 37.9% | 39.3% | 47.1% | 16.8% | 14.7% | 10.4% | 14.1% | 15.5% | 18.3% | 15.8% | 23.0% | 25.7% | 5 min | – | CO/N=C(\C(=O)N[C@@H]1C(=O)N2C(C(=O)O)=C(CSc3nc(=O)c(=O)[nH]n3C)CS[C@H]12)c1csc(N)n1 [Ceftriaxone] | Tmax [1]: 15 min
4 | 30.5% | 30.9% | 28.9% | 31.2% | 28.2% | 33.2% | 36.8% | 36.7% | 39.3% | 16.2% | 13.1% | 10.4% | 14.6% | 16.0% | 15.3% | 15.8% | 20.9% | 24.1% | – | 15 min | C[C@@H](O)[C@H]1C(=O)N2C(C(=O)O)=C(S[C@@H]3CN[C@H](C(=O)Nc4cccc(C(=O)O)c4)C3)[C@H](C)[C@H]12 [Ertapenem] | Tmax ([2]; male, ICR, mouse, blood, iv): 5 min; AUC(0-t) ([2]; male, ICR, mouse, blood, iv, ICR male mice, administration by injection via tail vein, single dose 100-200 mg/kg): 450 µg·h/mL; Cmax ([2]; male, ICR, mouse, blood, iv, Cmax, ICR male mice, administration by injection via tail vein, single dose 100-200 mg/kg): 368 µg/mL; Tmax ([2]; male, ICR, mouse, blood, sc): 15 min; AUC(0-t) ([2]; male, ICR, mouse, blood, sc, ICR male mice, conventional subcutaneous administration, single dose 100-200 mg/kg): 442 µg·h/mL; AUC(0-t) ([2]; male, ICR, mouse, blood, sc, ICR male mice, in combination with recombinant human HAase for subcutaneous administration, single dose 100-200 mg/kg): 459 µg·h/mL; Cmax ([2]; male, ICR, mouse, blood, sc, Cmax, ICR male mice, conventional subcutaneous administration, single dose 100-200 mg/kg): 318 µg/mL; Cmax ([2]; male, ICR, mouse, blood, sc, Cmax, ICR male mice, in combination with recombinant human HAase for subcutaneous administration, single dose 100-200 mg/kg): 333 µg/mL; Final concentration of HAase (units/ml) 2000 (HAase; antibiotic 30 mg/ml in physiological saline, HAase added to 2000 units/ml): 2016 units/ml; Final concentration of HAase (units/ml) 150 (HAase; antibiotic 300 mg/ml in physiological saline, HAase added to 150 units/ml): 156 units/ml
5 | 51.8% | 56.0% | 53.7% | 56.3% | 51.2% | 55.4% | 63.7% | 64.8% | 71.7% | 44.7% | 41.9% | 39.8% | 41.2% | 39.4% | 41.1% | 46.3% | 45.9% | 49.7% | – | 15 min | Teicoplanin | AUClast [2, 22]: 195 µg·h/mL; Cmax [2, 22]: 148 µg/mL; Tmax [2, 22]: 5 min; AUClast [2, 23]: 201 µg·h/mL; Cmax [2, 23]: 121 µg/mL; Tmax [2, 23]: 15 min; AUClast [2, 21]: 210 µg·h/mL; Cmax [2, 21]: 133 µg/mL
